We go through 14 compounds from PMC6651170, “New HSV-1 Anti-Viral 1′-Homocarbocyclic Nucleoside Analogs with an Optically Active Substituted Bicyclo[2.2.1]Heptane Fragment as a Glycoside Moiety” (Molecules, 2019).

One data set relates to Yellow Fever Virus. The data set can be described thus: microbe, parasite or virus in culture. The class given is cell-based. Conditions: read-out: IC50 Yellow Fever Virus.
Data set [1] is described as follows: in vitro.
Data set [2] deals with human adenovirus type 5 (AdV5). The data set can be described thus: microbe, parasite or virus in culture. The class given is cell-based. Conditions: read-out: IC50 Human Adenovirus Type 5.
The nature of data set [3]: in vitro. The source holds these as a separate data set.
Data set [4] can be described thus: in vitro. Conditions: dog.
A short description of data set [5]: in vitro. The source holds these as a separate data set.
The next data set has as its system Enterovirus 71. The data set can be described thus: microbe, parasite or virus in culture. The class given is cell-based. Particulars: read-out: IC50 Enterovirus 71.
Data set [6] has as its system herpes simplex virus type 1 (HSV-1). The data set can be described thus: microbe, parasite or virus in culture. The class given is cell-based. Particulars: for IC50: read-out: IC50 Herpes Simplex Virus Type 1.
Data set [7] is described as follows: in vitro. Conditions: African green monkey.
Data set [8] relates to Influenza virus (Flu A, strain A/Puerto Rico/8/34 (H1N1)). The data set can be described thus: microbe, parasite or virus in culture. The class given is cell-based. Conditions: read-out: IC50 Influenza Virus.
A further data set relates to Chikungunya Virus. The data set can be described thus: microbe, parasite or virus in culture. It is filed as cell-based. Conditions: read-out: IC50 Chikungunya Virus.
Another data set deals with HCMV. Conditions: read-out: IC50 against HCMV; cited from earlier work.
A further data set deals with EpsteinBarr virus. Conditions: read-out: IC50 against EpsteinBarr virus; cited from earlier work.
For another data set, the system named is VZV. Particulars: cited from earlier work.
In another data set the test system is herpes. Conditions: cited from earlier work.
For the next data set, the system named is L1210/0. Particulars: cited from earlier work.
Another data set concerns Molt4/C8. Particulars: cited from earlier work.
In another data set the test system is cytomegalovirus AD169. Particulars: read-out: EC50 against cytomegalovirus AD169 strain; cited from earlier work.
A further data set concerns VZV/TK^- strain. Conditions: read-out: EC50 against VZV/TK- strain; cited from earlier work.
The subject of data set [9] is cytomegalovirus DAVIS 07/1. Conditions: read-out: EC50 against cytomegalovirus DAVIS 07/1 strain; cited from earlier work.
The subject of the next data set is coxsackievirus B4. Particulars: cited from earlier work.
The test system of data set [10] is cells.
Data set [11] relates to cells. This is another data set of the same source.
Data set [12] concerns cells. The source holds these as a separate data set.
Setting [13] is: Human mastadenovirus C, Vero, 72 h.
The mark [14] stands for this setting: Human alphaherpesvirus 1, Vero, 72 h.
Where [15] appears, read: CC50 (Herpes Simplex Virus Type 1).
Setting [16] is: unidentified influenza virus, H1N1, MDCK, 48 h.

Usually IC50 stands for the concentration that gives 50% inhibition.

Values after ≈ are worked out from the molar mass of the structure shown. Read-outs that look alike come from different tables or passages of the source. Some results are limits rather than exact numbers.

As for `OC1C[C@H]2[C@H](Cn3cnc4c(N5CCOCC5)ncnc43)[C@@H]1C[C@@H]2Cl` (stereo partly drawn) [Compound 6h, (1S,4S,5S,7R)-5-Chloro-7-((6-morpholino-9H-purin-9-yl)methyl)bicyclo[2.2.1]heptan-2-ol], the IC50 in the data set with Yellow Fever Virus (Yellow fever virus) is greater than 100 µM; in [2] (setting [13]), greater than 600 µM; with Enterovirus 71 (Enterovirus A), greater than 100 µM; in data set [6] (setting [14]), 341 ± 40 µM; in data set [8] (setting [16]), 196 ± 15 µM; in the data set on Chikungunya Virus (Chikungunya virus) it was greater than 100 µM. Further, the CC50 in “in vitro [1]” was greater than 100 µM; in “in vitro [3]” it was greater than 100 µM; in “in vitro [4]” it was greater than 600 µM; in “in vitro [5]”, greater than 100 µM; in the data set “in vitro [7]” (setting [15]), greater than 600 µM; in the data set “in vitro [7]” (CC50 (Human Adenovirus Type 5)) it was greater than 600 µM.
As for `Oc1ccc(CCNc2ncnc3c2ncn3C[C@H]2[C@@H]3CC(O)[C@H]2C[C@@H]3Cl)cc1` (stereo partly drawn) [Compound 6i, (1S,4S,5S,7R)-5-Chloro-7-((6-((4-hydroxyphenethyl)amino)-9H-purin-9-yl)methyl)bicyclo[2.2.1]heptan-2-ol], the IC50 in the data set on Yellow Fever Virus (Yellow fever virus) was greater than 100 µM; in data set [2] (setting [13]), greater than 72 µM; with Enterovirus 71 (Enterovirus A), 79 µM; in [6] (setting [14]) it was 155 ± 13 µM; in data set [8] (setting [16]) it was greater than 72 µM; with Chikungunya Virus (Chikungunya virus), greater than 100 µM. The CC50 in “in vitro [1]” is greater than 100 µM; in the data set “in vitro [3]”, greater than 100 µM; in the data set “in vitro [4]”, 124 ± 9 µM; in “in vitro [5]” it was greater than 100 µM; in the data set “in vitro [7]” (setting [15]), 447 ± 31 µM; in “in vitro [7]” (CC50 (Human Adenovirus Type 5)) it was 217 ± 17 µM.
On to `OC1C[C@H]2[C@H](Cn3cnc4c(NCCc5ccccc5)ncnc43)[C@@H]1C[C@@H]2Cl` (stereo partly drawn) [Compound 6k, (1S,4S,5S,7R)-5-Chloro-7-((6-(phenethylamino)-9H-purin-9-yl)methyl)bicyclo[2.2.1]heptan-2-ol], for which the IC50 is greater than 100 µM in the data set with Yellow Fever Virus (Yellow fever virus); greater than 75 µM in [2] (setting [13]); 25 ± 5.6 µM in the data set with Enterovirus 71 (Enterovirus A); 48 ± 6 µM in data set [6] (setting [14]); 74 ± 8 µM in data set [8] (setting [16]); greater than 100 µM in the data set on Chikungunya Virus (Chikungunya virus). For the same compound, the CC50 in “in vitro [1]” was greater than 100 µM; in the data set “in vitro [3]” it was greater than 100 µM; in the data set “in vitro [4]”, 254 ± 21 µM; in “in vitro [5]”, greater than 100 µM; in “in vitro [7]” (setting [15]), 185 ± 16 µM; in “in vitro [7]” (CC50 (Human Adenovirus Type 5)), 245 ± 18 µM.
Consider `COc1ncnc2c1ncn2C[C@H]1[C@@H]2CC(O)[C@H]1C[C@@H]2Cl` (stereo partly drawn) [Compound 7a, (1S,4S,5S,7R)-5-Chloro-7-((6-methoxy-9H-purin-9-yl)methyl)bicyclo[2.2.1]heptan-2-ol], for which the IC50 in the data set with Yellow Fever Virus (Yellow fever virus) is greater than 100 µM; in data set [2] (setting [13]) it was greater than 972 µM; in the data set on Enterovirus 71 (Enterovirus A) it was greater than 100 µM; in data set [6] (setting [14]), greater than 972 µM; in [8] (setting [16]), 233 ± 33 µM; in the data set with Chikungunya Virus (Chikungunya virus), greater than 100 µM. Moreover, the CC50 in the data set “in vitro [1]” is greater than 100 µM; in “in vitro [3]”, greater than 100 µM; in the data set “in vitro [4]”, greater than 972 µM; in the data set “in vitro [5]”, greater than 100 µM; in “in vitro [7]” (setting [15]), greater than 972 µM; in the data set “in vitro [7]” (CC50 (Human Adenovirus Type 5)), greater than 972 µM.
With `CCOc1ncnc2c1ncn2C[C@H]1[C@@H]2CC(O)[C@H]1C[C@@H]2Cl` (stereo partly drawn) [Compound 7b, (1S,4S,5S,7R)-5-Chloro-7-((6-ethoxy-9H-purin-9-yl)methyl)bicyclo[2.2.1]heptan-2-ol], the IC50 with Yellow Fever Virus (Yellow fever virus) is greater than 100 µM; in [2] (setting [13]) it was greater than 929 µM; in the data set on Enterovirus 71 (Enterovirus A), greater than 100 µM; in [6] (setting [14]) it was 524 ± 63 µM; in data set [8] (setting [16]) it was greater than 929 µM; in the data set on Chikungunya Virus (Chikungunya virus), greater than 100 µM. For the same compound, the CC50 was greater than 100 µM in the data set “in vitro [1]”; greater than 100 µM in the data set “in vitro [3]”; greater than 929 µM in “in vitro [4]”; greater than 100 µM in “in vitro [5]”; greater than 929 µM in the data set “in vitro [7]” (setting [15]); greater than 929 µM in the data set “in vitro [7]” (CC50 (Human Adenovirus Type 5)).
Regarding `Nc1ncnc2c1ncn2/C=C1/C[C@H]1CO` [III], the IC50 in the data set with HCMV was 1 to 2.1 µM; with EpsteinBarr virus, 0.2 µM.
Regarding `O=c1[nH]c(=O)n(CC2(CO)CC2CO)cc1C=CBr` (stereo not shown) [II], the “anti-VZV activity, IC50” value in the data set on VZV is reported as 0.027 µg/mL.
Regarding `Nc1nc2c(ncn2/C=C2/C[C@H]2CO)c(=O)[nH]1` [IV], the IC50 was 0.04 to 2.1 µM in the data set with HCMV and 0.3 µM in the data set with EpsteinBarr virus.
In the case of `Nc1nc2c(ncn2CC2(CO)CC2CO)c(=O)[nH]1` (stereo not shown) [I], the “antiherpetic activity in words” value in the data set with herpes is on record as “extremely potent antiherpetic activity”.
`Nc1nc(Cl)c2nc[nH]c2n1` [V (6-Cl-2-amino-purine)]: in the data set on L1210/0, the “IC50 L1210/0, cytostatic activity” value is listed as 16.2 µg/mL (≈ 95.5 µM). For the same compound, the “IC50 Molt4/C8, cytostatic activity” value in the data set with Molt4/C8 is given as 13.2 µg/mL (≈ 77.8 µM).
As for `Nc1nc(Cl)c2nc[nH]c2n1` [VIII (6-Cl-2-aminopurine)], the figures for the EC50 (with cytomegalovirus AD169; with VZV/TK^- strain; in [9]) were 0.44 µM, 2.1 µM and 0.39 µM, respectively.
Take `OCC(Cc1ccccc1)Nc1ncnc2c1ncn2C1CC2C(Cl)CC1C2CO` (stereo not shown) [Xc]: the “EC50 against coxsackievirus B4” value in the data set on coxsackievirus B4 is 0.6 µg/mL (≈ 1.4 µM).
Turning to `Nc1nc(O)c2ncn(COC(CO)CO)c2n1` [ganciclovir], the EC50 was 0.25 µM in the data set on cytomegalovirus AD169 and 0.4 µM in [9].
With “(1S,4S,5S,7R)-5-Chloro-7-((6-((4-hydroxyphenethyl)amino)-9H-purin-9-yl)methyl)bicyclo[2.2.1]heptan-2-ol [Compound 6j]”, the IC50 in the data set on Yellow Fever Virus was greater than 100 µM; in data set [2], greater than 70 µM; with Enterovirus 71, 42 ± 3.2 µM; in [6] it was 15 ± 2 µM; in data set [8], greater than 234 µM; in the data set on Chikungunya Virus, greater than 100 µM. Also, the CC50 is greater than 100 µM in the data set on cells [10], greater than 100 µM in the data set with cells [11], 467 ± 28 µM in the data set with MDCK cells and greater than 100 µM in the data set with cells [12]. The “activity against HSV-1 in words” value in [6] is “active against herpes”.
